Assay [1] is described as follows: Intrinsic reactivity of the inhibitors with βME measured with HPLC. It counts as physicochemical. The note with it: 1 mM inhibitor + 600 mM βME, n = 3, mean. The source says:
E˜I→EI • ii) off-target reactions with ubiquitous sulfhydryls (S) and other nucleophils present in physiologic environments such as cells and body fluids are driven by the intrinsic reactivity of the warhead that is defined by Kchem driving the conversion of S and I to form the sulfhydryl-adduct (SI) [table]

A further assay concerns the target p110α (PI3Kα) (Homo sapiens, UniProt P42336). The assay is described as follows: LanthaScreen determination of kinetic constants (kinact, Ki) for p110α.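 As to all read-outs here: covalent inhibition constants for p110α come from LanthaScreen data, fitted globally by numerical integration in KinTek Global Kinetic Explorer software.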 Conditions: for Ki: dissociation constant of the first reversible binding, mean of 3; for kinact: read-out: kinact PI3Kα. It counts as binding. Background: TR-FRET usually uses a lanthanide donor and a delayed reading to cut background.

The test system of assay [2] is pSer473 of PKB/Akt in SKOV3 cells. The assay is described as follows: In-Cell Western cellular PI3K signaling, pSer473 of PKB/Akt in SKOV3 cells. Conditions: Homo sapiens. It counts as cell-based. As to the method:
Protein phosphorylation was detected as follows: pSer473 of PKB/Akt with rabbit polyclonal antibody from Cell Signaling Technology (CST) (#4058) by In-Cell Western assays, where 1.2×10^4 SKOV3 cells/well in 96-well plates were plated (Cell Carrier, PerkinElmer) for 24 hours (37° C., 5% CO2), as described in Ref.^21.

Where [3] appears, read: SK-OV-3, read-out: IC50 pPKB (S473) SKOV3.
[4] abbreviates: SK-OV-3, SKOV3 cells, mean of 2 or 3 independent measurements, read-out: IC50 pPKB (S473) SKOV3.
The mark [5] stands for this setting: mean of 3 independent measurements, global fitting with KinTek.

Like-named read-outs stand apart in the source and are kept apart here.

A word on the Ki: it is a measure of affinity in units of concentration, obtained from inhibition or displacement. Usually kinact stands for the rate constant of inactivation at saturating inhibitor. By IC50 is commonly meant the concentration at which inhibition is half-maximal.

Chain of p110α (PI3Kα) (P42336 whole entry): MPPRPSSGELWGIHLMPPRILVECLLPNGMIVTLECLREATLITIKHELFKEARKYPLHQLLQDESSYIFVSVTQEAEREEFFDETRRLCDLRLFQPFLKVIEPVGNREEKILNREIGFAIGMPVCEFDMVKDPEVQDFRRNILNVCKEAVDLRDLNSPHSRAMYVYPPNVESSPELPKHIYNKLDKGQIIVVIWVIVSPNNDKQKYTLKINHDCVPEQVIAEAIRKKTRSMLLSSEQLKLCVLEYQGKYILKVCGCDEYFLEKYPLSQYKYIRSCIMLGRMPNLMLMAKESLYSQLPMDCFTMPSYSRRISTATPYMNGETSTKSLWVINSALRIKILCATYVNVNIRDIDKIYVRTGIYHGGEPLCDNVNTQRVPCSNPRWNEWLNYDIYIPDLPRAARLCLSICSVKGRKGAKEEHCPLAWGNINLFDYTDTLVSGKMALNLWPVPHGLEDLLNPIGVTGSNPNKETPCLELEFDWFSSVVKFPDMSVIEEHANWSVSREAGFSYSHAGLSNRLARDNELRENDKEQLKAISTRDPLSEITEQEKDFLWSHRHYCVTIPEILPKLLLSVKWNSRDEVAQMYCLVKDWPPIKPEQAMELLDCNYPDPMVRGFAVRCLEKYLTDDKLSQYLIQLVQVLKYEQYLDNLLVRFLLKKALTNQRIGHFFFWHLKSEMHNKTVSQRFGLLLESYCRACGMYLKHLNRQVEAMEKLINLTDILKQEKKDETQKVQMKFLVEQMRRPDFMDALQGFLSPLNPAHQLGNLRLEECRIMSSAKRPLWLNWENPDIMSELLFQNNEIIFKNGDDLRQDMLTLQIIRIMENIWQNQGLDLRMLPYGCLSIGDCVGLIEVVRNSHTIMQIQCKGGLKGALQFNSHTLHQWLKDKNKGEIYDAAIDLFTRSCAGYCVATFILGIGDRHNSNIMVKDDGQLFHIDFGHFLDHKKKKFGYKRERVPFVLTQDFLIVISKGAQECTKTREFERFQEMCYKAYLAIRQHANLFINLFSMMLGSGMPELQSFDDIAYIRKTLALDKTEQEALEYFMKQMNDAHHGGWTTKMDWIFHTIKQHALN
Chain of p110α (PI3Kα) (P27986 whole entry partner): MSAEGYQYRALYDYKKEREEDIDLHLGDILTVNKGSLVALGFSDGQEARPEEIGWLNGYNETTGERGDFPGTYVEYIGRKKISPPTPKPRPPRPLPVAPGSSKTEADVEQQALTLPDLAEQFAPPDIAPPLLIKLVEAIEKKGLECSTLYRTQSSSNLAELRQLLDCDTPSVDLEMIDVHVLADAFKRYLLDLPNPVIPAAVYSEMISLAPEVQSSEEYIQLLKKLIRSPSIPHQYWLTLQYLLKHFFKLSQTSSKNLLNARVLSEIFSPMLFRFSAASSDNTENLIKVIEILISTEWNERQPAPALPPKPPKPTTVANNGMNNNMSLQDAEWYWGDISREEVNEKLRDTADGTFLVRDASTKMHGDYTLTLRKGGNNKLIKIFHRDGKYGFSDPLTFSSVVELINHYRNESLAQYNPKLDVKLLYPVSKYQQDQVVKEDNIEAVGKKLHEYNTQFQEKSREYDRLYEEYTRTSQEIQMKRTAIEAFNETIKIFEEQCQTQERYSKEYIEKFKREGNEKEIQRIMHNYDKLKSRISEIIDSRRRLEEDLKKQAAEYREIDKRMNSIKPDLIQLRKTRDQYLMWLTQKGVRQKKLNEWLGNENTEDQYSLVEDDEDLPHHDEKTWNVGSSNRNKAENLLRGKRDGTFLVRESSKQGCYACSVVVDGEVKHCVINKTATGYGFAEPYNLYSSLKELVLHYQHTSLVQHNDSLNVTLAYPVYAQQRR
Method for p110α (PI3Kα): Apparent dissociation constants of compounds [Ki(app)] for p110α were determined by LanthaScreen Technology (Life Technologies), as described in Ref.^21.
Maximum potential rate of covalent bond formation (Kinact) and dissociation constant of the first reversible binding (Ki) of compounds for p110α were determined by LanthaScreen Technology (Life Technologies). The calculation of kinetic parameters was carried out through global fitting for numerical integration by using KinTek Global Kinetic Explorer modelling software^22-27.

For `C=CC(=O)N1CCC[C@@H](C(=O)N(C)CC(=O)N2CCN(c3nc(-c4cnc(N)nc4C(F)F)nc(N4CCOCC4)n3)CC2)C1` [Compound 18, (R)-1-acryloyl-N-(2-(4-(4-(2-amino-4-(difluoromethyl)pyrimidin-5-yl)-6-morpholino-1,3,5-triazin-2-yl)piperazin-1-yl)-2-oxoethyl)-N-methylpiperidine-3-carboxamide], in assay [1], the kchem stood at 0.000704 M⁻¹ s⁻¹. In addition, at p110α (PI3Kα), the kinact/KI turned out to be 711000 M⁻¹ s⁻¹, the Ki stood at 0.00608 µM and the kinact turned out to be 0.00433 s⁻¹. For the same compound, the half-inhibitory concentration (IC50) in assay [2] (setting [3]) stood at 0.0153 µM.
Take `C=CC(=O)N1CCC(CCCC(=O)N2CCN(c3nc(-c4cnc(N)nc4C(F)F)nc(N4CCOCC4)n3)CC2)CC1` [Compound 47, 4-(1-acryloylpiperidin-4-yl)-1-(4-(4-(2-amino-4-(difluoromethyl)pyrimidin-5-yl)-6-morpholino-1,3,5-triazin-2-yl)piperazin-1-yl)butan-1-one]: in assay [1], the kchem was 0.000225 M⁻¹ s⁻¹. At p110α (PI3Kα), the kinact/KI worked out at 70300 M⁻¹ s⁻¹, affinity was put at a Ki of 0.00715 µM and the kinact stood at 0.000504 s⁻¹. Also, the IC50 in assay [2] (setting [4]) stood at 0.024 µM.
For `C=CC(=O)N1CCCC[C@H]1C(=O)NCC(=O)N1CCN(c2nc(-c3cnc(N)nc3C(F)F)nc(N3CCOCC3)n2)CC1` [Compound 20, (S)-1-acryloyl-N-(2-(4-(4-(2-amino-4-(difluoromethyl)pyrimidin-5-yl)-6-morpholino-1,3,5-triazin-2-yl)piperazin-1-yl)-2-oxoethyl)piperidine-2-carboxamide], the kchem in assay [1] was 0.00444 M⁻¹ s⁻¹. Besides, the kinact/KI on p110α (PI3Kα) (PI3Kα, read-out: kinact/Ki) turned out to be 212000 M⁻¹ s⁻¹. This compound displayed an inhibitory constant (Ki) on p110α (PI3Kα) of 0.00306 µM. The maximal inactivation rate constant (kinact) on p110α (PI3Kα) (setting [5]) was determined as 0.00065 s⁻¹. Further, the half-maximal inhibitory concentration (IC50) in assay [2] (setting [4]) turned out to be 0.0593 µM.
`C=CC(=O)N1CCC[C@H]1C(=O)N(C)CC(=O)N1CCN(c2nc(-c3cnc(N)nc3C(F)F)nc(N3CCOCC3)n2)CC1` [Compound 30, (S)-1-acryloyl-N-(2-(4-(4-(2-amino-4-(difluoromethyl)pyrimidin-5-yl)-6-morpholino-1,3,5-triazin-2-yl)piperazin-1-yl)-2-oxoethyl)-N-methylpyrrolidine-2-carboxamide]: the kchem in assay [1] came to 0.00058 M⁻¹ s⁻¹.
In the case of `C=CC(=O)N1CCC(C(=O)N(C)CC(=O)N2CCN(c3nc(-c4cnc(N)nc4C(F)F)nc(N4CCOCC4)n3)CC2)CC1` [Compound 45, 1-acryloyl-N-(2-(4-(4-(2-amino-4-(difluoromethyl)pyrimidin-5-yl)-6-morpholino-1,3,5-triazin-2-yl)piperazin-1-yl)-2-oxoethyl)-N-methylpiperidine-4-carboxamide], the kchem in assay [1] was 0.000354 M⁻¹ s⁻¹. The IC50 in assay [2] (setting [4]) stood at 0.086 µM.
On to `C=CC(=O)N1CCC(C(=O)NCC(=O)N2CCN(c3nc(-c4cnc(N)nc4C(F)F)nc(N4CCOCC4)n3)CC2)CC1` [Compound 44, 1-acryloyl-N-(2-(4-(4-(2-amino-4-(difluoromethyl)pyrimidin-5-yl)-6-morpholino-1,3,5-triazin-2-yl)piperazin-1-yl)-2-oxoethyl)piperidine-4-carboxamide], for which the kchem in assay [1] came out at 0.00037 M⁻¹ s⁻¹. Further, the IC50 in assay [2] (setting [4]) worked out at 0.082 µM.
The corresponding values for `C=CC(=O)N1CCC[C@@H]1C(=O)N(C)CC(=O)N1CCN(c2nc(-c3cnc(N)nc3C(F)F)nc(N3CCOCC3)n2)CC1` [Compound 31, (R)-1-acryloyl-N-(2-(4-(4-(2-amino-4-(difluoromethyl)pyrimidin-5-yl)-6-morpholino-1,3,5-triazin-2-yl)piperazin-1-yl)-2-oxoethyl)-N-methylpyrrolidine-2-carboxamide] are 0.00052 M⁻¹ s⁻¹ and 0.447 µM.
As to `C=C(F)C(=O)N1CCC[C@@H](COCC(=O)N2CCN(c3nc(-c4cnc(N)nc4C(F)F)nc(N4CCOCC4)n3)CC2)C1` [Compound 11, (R)-1-(3-((2-(4-(4-(2-amino-4-(difluoromethyl)pyrimidin-5-yl)-6-morpholino-1,3,5-triazin-2-yl)piperazin-1-yl)-2-oxoethoxy)methyl)piperidin-1-yl)-2-fluoroprop-2-en-1-one], the Ki on p110α (PI3Kα) came out at 0.00185 µM. Besides, in assay [2] (setting [4]), the IC50 was 0.0199 µM.
In the case of `N#C/C(=C/C1CC1)C(=O)N1CCC[C@@H](COCC(=O)N2CCN(c3nc(-c4cnc(N)nc4C(F)F)nc(N4CCOCC4)n3)CC2)C1` [Compound 8, (R,Z)-2-(3-((2-(4-(4-(2-amino-4-(difluoromethyl)pyrimidin-5-yl)-6-morpholino-1,3,5-triazin-2-yl)piperazin-1-yl)-2-oxoethoxy)methyl)piperidine-1-carbonyl)-3-cyclopropylacrylonitrile], at p110α (PI3Kα), the kinact/KI turned out to be 3.96e+06 M⁻¹ s⁻¹, the Ki was 0.00278 µM and the maximal inactivation rate constant (kinact) was determined as 0.011 s⁻¹. Moreover, the concentration for half-maximal inhibition (IC50) in assay [2] (setting [3]) turned out to be 0.0116 µM.
At p110α (PI3Kα), `Nc1ncc(-c2nc(N3CCOCC3)nc(N3CCN(C(=O)COC[C@H]4CCCN(C(=O)/C=C/CF)C4)CC3)n2)c(C(F)F)n1` [Compound 14, (S,E)-1-(3-((2-(4-(4-(2-amino-4-(difluoromethyl)pyrimidin-5-yl)-6-morpholino-1,3,5-triazin-2-yl)piperazin-1-yl)-2-oxoethoxy)methyl)piperidin-1-yl)-4-fluorobut-2-en-1-one] showed a Ki of 0.00191 µM. Also, in assay [2] (setting [4]), the IC50 was found to be 0.0222 µM.
Regarding `C=CC(=O)N1CC(C(=O)N(C)CCC(=O)N2CCN(c3nc(-c4cnc(N)nc4C(F)F)nc(N4CCOCC4)n3)CC2)C1` [Compound 37, 1-acryloyl-N-(3-(4-(4-(2-amino-4-(difluoromethyl)pyrimidin-5-yl)-6-morpholino-1,3,5-triazin-2-yl)piperazin-1-yl)-3-oxopropyl)-N-methylazetidine-3-carboxamide], in assay [1], the kchem was determined as 0.00636 M⁻¹ s⁻¹. Also, the IC50 in assay [2] (setting [4]) is 0.196 µM.
With `C=CC(=O)N1CC(C(=O)NCC(=O)N2CCN(c3nc(-c4cnc(N)nc4C(F)F)nc(N4CCOCC4)n3)CC2)C1` [Compound 32, 1-acryloyl-N-(2-(4-(4-(2-amino-4-(difluoromethyl)pyrimidin-5-yl)-6-morpholino-1,3,5-triazin-2-yl)piperazin-1-yl)-2-oxoethyl)azetidine-3-carboxamide], in assay [1], the kchem turned out to be 0.00517 M⁻¹ s⁻¹. In assay [2] (setting [4]), the IC50 worked out at 0.175 µM.
For the compound `C=CC(=O)N1CC[C@H](COCC(=O)N2CCN(c3nc(-c4cnc(N)nc4C(F)F)nc(N4CCOC[C@@H]4C)n3)CC2)C1` [Compound 3, 1-((S)-3-((2-(4-(4-(2-amino-4-(difluoromethyl)pyrimidin-5-yl)-6-((S)-3-methylmorpholino)-1,3,5-triazin-2-yl)piperazin-1-yl)-2-oxoethoxy)methyl)pyrrolidin-1-yl)prop-2-en-1-one], at p110α (PI3Kα) (PI3Kα, read-out: kinact/Ki), the kinact/KI worked out at 502000 M⁻¹ s⁻¹. Besides, at p110α (PI3Kα) (setting [5]), the kinact came out at 0.000432 s⁻¹. In addition, the half-inhibitory concentration (IC50) in assay [2] (setting [4]) was determined as 0.023 µM.
As for `N#C/C(=C/C1CC1)C(=O)N1CC[C@H](COCC(=O)N2CCN(c3nc(-c4cnc(N)nc4C(F)F)nc(N4CCOCC4)n3)CC2)C1` [Compound 9, (S,Z)-2-(3-((2-(4-(4-(2-amino-4-(difluoromethyl)pyrimidin-5-yl)-6-morpholino-1,3,5-triazin-2-yl)piperazin-1-yl)-2-oxoethoxy)methyl)pyrrolidine-1-carbonyl)-3-cyclopropylacrylonitrile], the kinact/KI on p110α (PI3Kα) (PI3Kα, read-out: kinact/Ki) was 9.43e+06 M⁻¹ s⁻¹. For the same compound, the Ki on p110α (PI3Kα) was 0.00111 µM. Further, the kinact at p110α (PI3Kα) (setting [5]) amounted to 0.0105 s⁻¹. Further, the IC50 in assay [2] (setting [4]) was determined as 0.0144 µM.

These data come from patent US20240208957A1, “TRIAZINE DERIVATIVE AS REVERSIBLE AND IRREVERSIBLE COVALENT INHIBITORS OF PI3K” (UNIVERSITÄT BASEL, priority 2021, published 2024).
